Source: patent US5283244A, “Fused pyrazine derivatives” (Yamanouchi Pharmaceutical Co., Ltd., priority 1990, dated 1994)
Where a name gives a salt, the structure may show the parent alone.

Tests used:
[1] = tested on: NMDA-induced neuropathy, animal models of epilepsy or brain ischemia; conditions: reported in the literature; cited from earlier work
AMPA receptor = assay: [3H]-AMPA binding inhibitory activity; conditions: rat cerebral membrane
Procedure: Determination of [^3 H]-AMPA Binding Activity
A mixture (0.5 ml) of about 45 nM [^3 H]-AMPA (2-amino-3-(3-hydroxy-5-methyl-4-isoxazole)propionic acid), about […] of rat cerebral membrane specimen and the test compound was allowed to react on ice-water for 45 minutes. The amount of [^3 H]-AMPA bound to quisqualic acid receptors was determined by the filtration method. Of the total amount of binding, the portion substituted for by 10 μM quisqualic acid was regarded as specific binding. The test compound was evaluated by determining the percentage inhibition of the specific binding.

DBA/2 mice = assay: Audiogenic convulsion inhibitory activity in DBA/2 mice; format: in vivo; conditions: Mus musculus, ip, 0.25 h, intraperitoneal, given 15 minutes before sound stimulation, read-out: dose at which audiogenic convulsions were inhibited
Procedure: Determination of Audiogenic Convulsion Inhibitory Activity in DBA/2 Mice
Ten male mice, 21-28 days old, were placed in a soundproof box and loaded with a sound stimulus of 12 KHz and 120 dB for 1 minute or until the mice developed tonic convulsions.
The test compound was suspended in 0.5% methylcellulose solution or dissolved in physiological saline and administered intraperitoneally 45 or 15 minutes before sound stimulation.
The effect of the test compound was evaluated according to the onset of convulsion and the minimum effective dose (MED) was determined.

[2] = tested on: nerve cells in the hippocampus CA1; assay: Neuron-protective action in the hippocampus, gerbil model of ischemia; format: in vivo; conditions: administered 60, 70 and 85 minutes after 5-minute ischemia (regimen 2, 30 mg/kg/dose i.p.)
Procedure: Neuron-Protective Action in the Hippocampus
The protective action on nerve cell necrosis due to cerebral ischemia was tested using a gerbil model of ischemia constructed by occlusion of the bilateral common carotid arteries.
The bilateral common carotid arteries of the gerbil were occluded for 5 minutes under halothane anesthesia with the animal kept warm to avoid hypothermia and, then, the animal was allowed to recover from anesthesia. After 4 days, the brain was isolated and sections were prepared for histological examination of the degree of neuronal damage in the hippocampus CA1.
The test compound, either suspended in 0.5% methylcellulose solution or dissolved in physiological saline, was administered intraperitoneally. Two dosage regimens were employed. In regimen 1, 30 mg/kg/dose was administered 45 and 15 minutes before ischemia and 5 minutes and 1, 2, 3, 6 and 24 hours after obtaining re-patency. In regimen 2, 30 mg/kg/dose was administered 60, 70 and 85 minutes after obtaining re-patency.
Histopathological examination was performed using a light microscope. The degree of nerve cell impairment in the hippocampus CA1 area was rated on a 4-point scale of no lesion (score 0), slight necrosis (score 1), moderate necrosis (score 2) and complete necrosis (score 3).

[3] = tested on: animal model of brain ischemia; conditions: reported in the literature; cited from earlier work

In the case of `NC(CCCP(=O)(O)O)C(=O)O` (stereo not shown) [2-amino-5-phosphonovalerianic acid], the “efficacy in NMDA-induced neuropathy and in animal models of epilepsy or brain ischemia” value [1] is given as “effective”.

In the case of `NC(CCCCCP(=O)(O)O)C(=O)O` (stereo not shown) [2-amino-7-phosphonoheptanoic acid], the “efficacy in NMDA-induced neuropathy and in animal models of epilepsy or brain ischemia” value [1] is listed as “effective”.

For `O=c1[nH]c2cc([N+](=O)[O-])c(-n3ccnc3)cc2n(O)c1=O` [Example 8, 1-hydroxy-7-imidazolyl-6-nitroquinoxaline-2,3-(1H,4H)-dione], the “AMPA receptor binding inhibitory activity” value (AMPA receptor; at 1 μM) was 96% and the Ki (AMPA receptor) was 0.021 µM.

In the case of `O=c1[nH]c2cc(-n3ccnc3)c(C(F)(F)F)cc2[nH]c1=O` [Example 9, 6-(1-imidazolyl)-7-trifluoromethylquinoxaline-2,3-(1H,4H)-dione hydrochloride hydrate], the minimal effective dose (DBA/2 mice) is reported as 3 mg/kg.

In the case of `O=c1[nH]c2cc(-n3ccnc3)c([N+](=O)[O-])cc2[nH]c1=O` [Example 15, 6-imidazolyl-7-nitroquinoxaline-2,3-(1H,4H)-dione], the minimal effective dose (DBA/2 mice) is reported as 3 mg/kg, the “lesion score (hippocampus CA1, scale 0-3)” value [2] is reported as 1.2 and the neuron protecting activity [2] is reported as 60%.

For `NC1CCN(O)C1=O` (stereo not shown) [HA-966], the “efficacy in an animal model of brain ischemia” value [3] is listed as “effective”.

For `NS(=O)(=O)c1cccc2c1c([N+](=O)[O-])cc1[nH]c(=O)c(=O)[nH]c12` [NBQX], the “efficacy in an animal model of brain ischemia” value [3] is given as “effective”.
